Reference: patent US8933244B2, “Stabilized active halogen solutions” (Lonza Inc., priority 2009, dated 2015)

Experiments:
[1] = test system: Enterobacter aerogenes (ATCC 13048) and Pseudomonas aeruginosa (ATCC 15442); experiment: Biocidal efficacy in paper pulp slurry (modified ASTM E: 1839-07); format: cell-based; settings: 2 ppm total Cl2, 3 h, 34° C., DMH 1.81 ppm alone
Procedure: The conditions of the experiment were a modification of the method described in ASTM E: 1839-07. A 1% pulp slurry was prepared via shredding white laser printer paper and adding to an appropriate amount of 400 ppm alkalinity (as CaCO3) water solution. The slurry was rapidly mixed while heating to 98(±2) ° C., followed by cooling to room temperature. The pH was adjusted to 8.5 with 1N H2SO4 and the slurry was diluted to 0.5% with deionized water. A 98(±1) mL aliquot was transferred to a 125 mL sample flask and steam sterilized and cooled to room temperature prior to use.
Stock solutions of NaOCl at either 51,000 ppm or 400 ppm (as Cl2) were freshly prepared prior to the organism challenge test. Dilutions of the test samples were made in order to prepare a sample solution at the desired Cl2:Active Ingredient molar ratio and the flasks were dosed according to the target total Cl2 desired (2 ppm total Cl2).
Twenty four hour cultures of Enterobacter aerogenes (ATCC 13048) and Pseudomonas aeruginosa (ATCC 15442) were used for the testing. Microbiological counts were performed using tryptic soy agar (TSA) […] by known pour plate techniques. Final bacterial concentration of the inoculum was between 2×10^6 and 1×10^7 CFU/mL. 1 mL of the inoculum was then placed into each of the sample to be tested and the samples placed onto a shaker for 3 hours at 34° C. After the 3 hour contact time, DIFCO Dey-Engley (D/E) Neutralizing Broth was used as the first serial dilution tube for biocide neutralization and dilutions were plated through 10^6.

[2] = Continuous flow mixing of stabilizer solution with sodium hypochlorite: temperature excursion and pH change; format: physicochemical; settings: for ΔpH: 12.2% NaOCl (initial pH 12.6); for ΔT: 12.2% NaOCl
Procedure: For each data point, the combined flow rates of the stabilizer and hypochlorite solutions were adjusted in order to maintain the desired molar ratio of NaOCl to active ingredient (A.I.). The solution temperature was recorded before the onset of flow and after combination with the hypochlorite solution. In addition, the final pH of the resulting collected solution was recorded after a 2 min interval of continuous flow.
Stabilizer solutions of the present invention were prepared via dissolution of at least one substituted N-hydrogen compound (DMH=5,5-dimethylhydantoin and/or Amine=ethanolamine, morpholine) (i), and of at least one additional containing nitrogen compound (ii) in water with the pH adjusted to 7-9.5, if necessary. […]
Sodium hypochlorite solutions were used directly at high concentration (12.2%).
Consistent with known ammonia and urea chemistry (vide supra), mixing a halogen source and ammonium salt solutions at Cl2:N ratios greater than 1 (e.g., 2-4) usually results in substantial exothermic temperature excursions (ΔT, in Kelvin) and reductions in pH due to decomposition reactions that occur.

[3] = high pH (12.4-13.4); Cl2:urea ratios of 1:1-2:1; WO 2007/089539 A2 / US 2007/0178173 A1; cited from earlier work
[4] = 15% active ingredients, Cl2:NH3 or Cl2:Urea 2
[5] = 15% active ingredients, Cl2:NH3 or Cl2:Urea 4
[6] = 17% active ingredients, Cl2:NH3 or Cl2:Urea 4
[7] = 5% active ingredients, Cl2:NH3 or Cl2:Urea 2.5
[8] = 15% active ingredients, Cl2:NH3 or Cl2:Urea 8

With `CC1(C)NC(=O)NC1=O` [DMH, 5,5-dimethylhydantoin] the “Efficacy (Δlg)” value ([1]; box paper pulp slurry) was 0.1 Δlg, the “Efficacy (Δlg)” value ([1]; fine paper pulp slurry (Table 3 series)) was 3.2 Δlg and the “Efficacy (Δlg)” value ([1]; fine paper pulp slurry (Table 4 series)) was 2.9 Δlg.
`Br.N` [NH4Br, ammonium bromide] showed a ΔpH [2, 4] of −9.5, a ΔpH [2, 5] of −5.3 and a ΔpH [2, 6] of −5.3. For the same compound, the ΔT [2, 4] was 37 K, the ΔT [2, 5] was 31 K and the ΔT [2, 6] was 34 K.
For `NC(N)=O` [Urea, urea], the total halogen yield [3] is listed as 48-69%, the ΔpH [2, 7] is listed as −0.5 and the ΔpH [2, 8] is listed as −0.7. It also gave a ΔT [2, 7] of 18 K and a ΔT [2, 8] of 36 K.
